Assay: Aldehyde reactivity of compounds: fluorogenic reaction with acetaldehyde in phosphate buffer, excitation/emission spectra
Type: physicochemical
Description: Spectra were taken at pH 6 in a 50 mM phosphate buffer solution.
Spectra were taken at pH 6 in 50 mM phosphate buffer solution.
A sample of Compound 2 (5 mg, 0.0126 mmol) is dissolved in 10 ml of pH 6.5, 50 mmol phosphate buffer solution. To this non-fluorescent solution, is added 25 ul, 1 mol solution of acetaldehyde in water at room temperature. […] The reaction is complete in 10 minutes to give a stable […] analog. Its absorption max is at 548 nm and emission max is at 580 nm (see FIGS. 3A and B).

[1] = after reaction with acetaldehyde, pH 6.5 phosphate buffer
[2] = aldehyde-reacted, pH 6, 50 mM phosphate buffer, FIG. 3B

absorption max of acetaldehyde reaction product [1]: 548 nm | emission max of acetaldehyde reaction product [1]: 580 nm | emission spectra maximum, aldehyde-reacted compound [2]: 581 nm | excitation maximum, aldehyde-reacted compound [2]: 548 nm | excitation maximum, un-reacted compound (un-reacted dye, FIG. 3A): 519 nm
SMILES: NN=c1ccc2c(-c3ccccc3S(=O)(=O)O)c3ccc(NN)cc3oc-2c1 [Compound 2, 2-(6-hydrazinyl-3-hydrazono-3H-xanthen-9-yl)benzenesulfonate]
fluorescence of solution after addition of acetaldehyde (25 ul 1 mol acetaldehyde in water, room temperature, pH 6.5 phosphate buffer, within a few minutes): highly fluorescent | change of fluorescence upon reaction with an aldehyde (emission spectra before and after contact with acetaldehyde) (acetaldehyde, pH 6, 50 mM phosphate buffer, FIG. 1): significant fluorescent increase | time to complete reaction with acetaldehyde (room temperature, pH 6.5, 50 mmol phosphate buffer): 10 min

Reference: US10006918B2, “Fluorogenic hydrazine-substituted compounds” (LIFE TECHNOLOGIES CORPORATION, priority 2008, dated 2018)
